Values belong to the molecule of their own block, whether it stands above or below them.
Legend:
[1] = biological target: T1, vanadium chloroperoxidase (CiVCPO) (Curvularia inaequalis, UniProt P49053); assay: fluorescence binding titration (quenching), tight-binding fit, pH […]
T1 construct: gene CPO; His-trap purified CiVCPO expressed in E. coli BL21 DE3 (67 kDa)
T1 sequence (P49053 1-609): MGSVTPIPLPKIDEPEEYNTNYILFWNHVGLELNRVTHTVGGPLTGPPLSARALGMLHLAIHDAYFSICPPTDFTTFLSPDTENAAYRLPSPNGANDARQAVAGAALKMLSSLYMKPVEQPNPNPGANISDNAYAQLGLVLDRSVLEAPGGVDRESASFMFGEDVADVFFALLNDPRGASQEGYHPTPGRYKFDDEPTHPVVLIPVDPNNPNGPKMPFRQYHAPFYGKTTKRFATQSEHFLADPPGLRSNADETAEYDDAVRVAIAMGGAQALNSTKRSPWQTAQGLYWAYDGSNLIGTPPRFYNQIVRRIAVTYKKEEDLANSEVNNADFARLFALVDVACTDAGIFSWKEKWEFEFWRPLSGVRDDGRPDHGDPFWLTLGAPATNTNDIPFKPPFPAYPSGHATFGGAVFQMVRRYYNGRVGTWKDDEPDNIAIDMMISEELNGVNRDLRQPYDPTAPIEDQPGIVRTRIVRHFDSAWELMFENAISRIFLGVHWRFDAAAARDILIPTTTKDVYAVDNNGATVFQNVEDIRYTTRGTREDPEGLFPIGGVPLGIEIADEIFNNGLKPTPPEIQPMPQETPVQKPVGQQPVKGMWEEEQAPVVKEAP

purified protein = substrate: c1ccc(-c2cc3ccccc3[nH]2)cc1; assay: purified protein; conditions: vanadate pocket near the protein surface: Pro47, His222, Gln220, Asp292, Gly293, Asp390, Phe393, Pro396, Phe397 (docking/MD only)

Kd [1]: 0.66 ± 0.05 µM
Molecule: Cn1c(-c2ccccc2)cc2ccccc21 [methylphenylindole]

B1: vanadium chloroperoxidase (CiVCPO) (Curvularia inaequalis) (protein)
chain: T1 sequence (P49053 1-609)
Km (purified protein): 1.52 µM

Source: paper PMC10278073, “How Is Substrate Halogenation Triggered by the Vanadium Haloperoxidase from Curvularia inaequalis?” (ACS Catalysis, 2023)
